Laboratory results published in patent US20170306409A1, “CANCER PATIENT SELECTION FOR ADMINISTRATION OF WNT SIGNALING INHIBITORS USING RNF43 MUTATION STATUS” (NOVARTIS AG, priority 2012, published 2017).

Tests used:
KLM1 = experiment: foci formation assay; assay type: cell-based, human; settings: 1 μM LGK974
Procedure: To assay foci formation, 6,000˜12,000 cells of indicated cell lines were seeded in 6 well tissue culture plate in 2 ml growth media. After overnight culture for cell attachment, media was replaced with fresh growth media containing 1 μM LGK974 in the absence and presence of recombinant Wnt3a. For DOX-inducible β-catenin shRNA experiment, cells were treated 5 ng/ml doxycycline. When cell colonies reached desirable size, cells were fixed with 4% formalin in PBS and stained with crystal violet solution. After a few washes, plates were dried and imaged.
Identification of pancreatic cancer lines containing inactivation mutation of RNF43. Discovery of LGK974, a potent and selective inhibitor of Porcupine, offered us a unique chemical tool to systemically examine Wnt dependency in a large panel of cancer cell lines. We tested LGK974 in a large panel of pancreatic cancer cell lines using foci formation assay. Foci formation assay was utilized because it is more sensitive than routine growth assays such as CellTiter-Glo, and it is less affected by the different growth rates of various cell lines.

Axin2, YAPC = experiment: Axin2 qPCR assay (pathway inhibition); assay type: cell-based, human
Procedure: For reverse transcription and quantitative PCR (qPCR), total RNA was extracted from cells or tumors using the RNeasy Plus Mini Kit (Qiagen). 1 μg of RNA were reverse transcribed with Taqman Reverse Transcription Reagents (Applied Biosystems) according to the manufacturer's instruction. Quantitative PCR was performed in 12 μl reactions consisting of 0.6 μl of 20× Taqman probe and PCR primer mix, 6 μl 2× Taqman FAST Advanced Master Mix (Applied Biosystems), and 5.4 μl diluted cDNA template. The thermocycling conditions utilized were 20 seconds at 95° C., followed by 40 cycles of 1 second at 95° C. and 20 seconds at 60° C. All experiments were performed in quadruplicates. Gene expression analysis was performed using the comparative ΔΔCT method and normalized with the housekeeping gene GUSB or 18S. The Taqman probes were purchased from Applied Biosystems.
Consistent with this observation, treatment of Porcupine inhibitor IWP2 or LGK974 increased the cell surface level of Frizzled and decreased the mRNA levels of AXIN2 and RNF43. See, FIG. 4(b). […] YAPC cells were treated with 3 μM of IWP-2 or 1 μM of LGK974, and subjected to flowcytometry analysis for membrane Frizzled expression.

[1] = test system: STF Wnt reporter, YAPC-STF cells; experiment: SuperTOPFlash (STF) luciferase reporter assay; assay type: cell-based, human; settings: absence of exogenous Wnt3a, LGK974 or IWP-2
Procedure: For the luciferase reporter assay, YAPC-STF reporter cells were transfected with siRNA and treated with Wnt3a conditioned medium or compound where applicable. STF luciferase assays were performed using BrightGlo Luciferase Assay kits (Promega) according to the manufacturer's instructions.
To construct pancreatic cell lines expressing STF reporter, HEK293 cells were grown in medium recommended by ATCC supplemented with 10% FBS. Retrovirus or lentivirus was produced from HEK293 cells by standard virus packaging procedure using FuGENE 6 (Roche) transfection reagent. Pancreatic cell lines expressing STF reporter, RNF43 constructs, or DOX-inducible β-catenin shRNA were generated by viral infection and drug selection.
Depletion of RNF43 induces Dvl phosphorylation and β-catenin stabilization. […] RNF43 siRNA-induced STF activity in the absence of exogenous Wnt3a is inhibited by LGK974 and a previously known Porcupine inhibitor IWP-2. Chen B et al. (2009) Nat. Chem. Biol. 5(2):100-7. See, FIG. 3(b), showing that this activity is dependent on the expression of endogenous Wnt proteins.

RNF43 mutant cells = experiment: foci formation assay with recombinant Wnt3a; assay type: cell-based, human; settings: 1 μM of LGK974 together with recombinant Wnt3a
Text: We next characterized Wnt-dependency in pancreatic cancer cell lines.

Capan-2 xenografts = experiment: PDAC xenograft model, in vivo efficacy and pharmacodynamics; design: species or system mice
Text: (§1) To analyze the role of Wnt pathway activation in maintenance of RNF43 mutant pancreatic tumors in vivo, we utilized two PDAC xenograft models (HPAFII and Capan-2).
(§2) For in vivo efficacy and pharmacodynamic studies, cells were harvested at a density of 95-110% confluency. 10 million cells (HPAFII) or 3 million cells (Capan-2) mixed 50:50 with BD matrigel matrix basement membrane (Matrigel) (BD Biosciences) were subcutaneously implanted into the upper right supra-axillary region of nu/nu (Harlan) (HPAFII) or scid.bg (Harlan) (Capan-2) mice. Tumors were monitored twice weekly by calipering and tumor volumes (TV) were calculated using the ellipsoid formula: TV(mm^3)=((l×w^2)×3.14159))/6. Xenograft tumor-bearing mice were randomized to treatment groups (n=8 per group) either 14 days post tumor implant (Capan-2), when the mean tumor volume reached 223 mm^3 (range 200-250 mm^3) or 11 days post implant (HPAFII), when the mean tumor volume reached 341 mm^3 (range 272-418 mm^3). Mice were treated by oral gavage (p.o.) twice daily (BID) at a dosing volume of 10 mL/kg with either vehicle (0.5% methylcelluose (MC)/0.5% Tween 80) or a 0.65 mg/mL suspension of the fumarate salt form of LGK974 (LGK974-AE-4, free base molecular weight conversion factor 1.293) in 0.5% MC/0.5% Tween 80. In vivo doses are reported as free base equivalents. Following treatment for 14 days (HPAFII) or 35 days (Capan-2), anti-tumor activity was reported as percent treatment/control (% T/C) or % Regression (% REG) values. Anti-tumor activity was calculated using the following formula: % T/C=100 ΔΔTt/ΔCt if ΔTt≧0; or % REG=100 ΔΔTt/T0 if ΔTt<0; where: T0=mean tumor volume (TV) of the drug-treated group on the day of randomization; Tt=mean TV of the drug-treated group at study end; […]; Ct=mean TV of the control group on the final day of the study; C0=mean TV of the control group on the day of randomization; and ΔCt=C0−Ct*% T/C values in the range of 100 to 42% are interpreted to have no anti-tumor activity; % T/C values 42% and >10% are interpreted to have anti-tumor activity, % T/C values 10% or % REG≧-10% are interpreted to be tumor stasis. % REG values <-10% are interpreted as regressions. Separate, parallel cohorts of animals (n=3 per treatment and time point) were treated with vehicle or LGK974 as above to obtain tumor tissue for ex vivo analysis of pharmacodynamic markers.
(§3) Furthermore, treatment of mice bearing Capan-2 xenografts with 5 mg/kg LGK974, p.o. BID for 35 days achieved tumor stasis (T/C=5%). Consistent with the mechanism of action of LGK974, expression of the β-catenin target gene, AXIN2, was decreased in treated HPAFII and Capan-2 xenografts.

HPAFII xenografts = experiment: as above; design: species or system mice
Text: as §1, §2, §3

**Q.** How did the “Growth inhibition in foci formation assay” value (KLM1) turn out when `Cc1cc(-c2ncc(CC(=O)Nc3ccc(-c4cnccn4)cn3)cc2C)ccn1` [LGK974, 2-[5-methyl-6-(2-methylpyridin-4-yl)pyridin-3-yl]-N-[5-(pyrazin-2-yl)pyridin-2-yl]acetamide] was run?
**A.** No

**Q.** And the “Pathway inhibition in Axin2 qPCR assay” value (Axin2, YAPC; YAPC)?
**A.** Yes

**Q.** What about the “mRNA level of AXIN2” value (Axin2, YAPC; YAPC cells, 1 μM of LGK974) of the same compound?
**A.** decreased

**Q.** And the “RNF43 siRNA-induced STF activity” value [1]?
**A.** inhibited

**Q.** And the “growth inhibitory effect with exogenous Wnt3a” value (RNF43 mutant cells)?
**A.** rescued

**Q.** And the “cell cycle arrest and differentiation within the xenograft tumors” value (Capan-2 xenografts; Capan-2 xenograft tumors)?
**A.** induced cell cycle arrest and differentiation

**Q.** What about the “T/C (tumor stasis)” value (Capan-2 xenografts; mice bearing Capan-2 xenografts, 5 mg/kg p.o. BID for 35 days) of the same compound?
**A.** 5%

**Q.** What about the “expression of the β-catenin target gene AXIN2 in xenografts” value (Capan-2 xenografts; treated Capan-2 xenografts) of the same compound?
**A.** decreased

**Q.** And the “cell cycle arrest and differentiation within the xenograft tumors” value (HPAFII xenografts; HPAFII xenograft tumors)?
**A.** induced cell cycle arrest and differentiation

**Q.** And the “T/C (tumor growth in treated relative to vehicle)” value (HPAFII xenografts; mice bearing HPAFII xenografts, 5 mg/kg p.o. BID for 14 days)?
**A.** 33%

**Q.** What about the “expression of the β-catenin target gene AXIN2 in xenografts” value (HPAFII xenografts; treated HPAFII xenografts) of the same compound?
**A.** decreased
